Test results taken from US6037332A, “Method of urinary bladder instillation” (Emory University, priority 1997, dated 2000).

Legend:
[1] = tested on: MNU induced bladder tumors; conditions: intravesical, Fisher 344 rats; Graham et al. 1995; cited from earlier work
T24 cells = experiment: Proliferation of human transitional cell carcinoma cultures (crystal violet, A540 ratio day one/day eight); assay type: cell-based; conditions: 10 mM dextran sulfate; day eight; p<0.0001
Description: Method: Cultures of two urothelial carcinoma cell lines, HT 1376 and T24 were obtained from the American Type Culture Collection and propagated in Dulbecco's Modified Eagles Medium (DMEM) supplemented with 10% fetal bovine serum (FBS). The HT1376 and T24 cells were plated into 96 well polystyrene trays in 0.1 ml of medium at densities of 5000 and 2500 cells/wells respectively. After overnight incubation, medium was replaced with DMEM containing various FBS and dextran sulfate concentrations. Each FBS and dextran sulfate concentration was tested in quadruplicated wells. On day eight the cells were fixed with glutaraldehyde, stained with 0.1% crystal violet and absorbance at 540 nm was quantitated in a (Bio-Rad) microplate spectrophotometer.
Results: The ratio of A540 values in day one and day eight was used to indicate cell proliferation.

[2] = tested on: MNU-induced rat bladder transitional cell carcinoma
Description: (1972) and modified by Steinberg, et al. (1990). Animals: Four to five week old female Fisher 344 rats (avg. Wt. 200 g) were used in all cohorts on this trial. All animals received 5 mg/200 g body weight intraperitoneal gentamicin (50 mg/ml) as antibacterial prophylaxis one hour prior to each bladder catheterization. MNU dose and schedule: 100 mg of MNU (Sigma, St. Louis, Mo.) were dissolved in 10 ml of sodium acetate (CH3 COONa), pH of a solution=6.5. Five mg/200 g body weight of this solution (0.5 ml) was instilled intravesically via a 22-gauge teflon angiocatheter under a continuous flow hood within 45 minutes of preparing the MNU solution every other week for a total of 4 doses (8 weeks). […] (Mol. Wt. 8000 Da.-Sigma, St. Louis, Mo.) Beginning at week four, 20 of the animals received intravesical dextran sulfate, 10 mg/200 g body weight twice a week for four weeks. The remaining 20 animals received saline on the same schedule. Tissue Preparations: The urinary bladder were excised, filled and fixed with 10% neutral buffered formalin, and then embedded in paraffin. The bladders were sectioned every 2 mm and 5-micron sections were stained with hematoxylin and eosin.

[3] = tested on: epidermal growth factor (EGF) binding to T24 cells; experiment: 125I-EGF growth factor receptor binding to T24 cells; set-up: species or system human
Description: Method: Growth factor receptor binding studies were performed using T24 high grade human bladder tumor cell line. Cells were incubated with […] ^125 I-Insulin like growth factor-1 (^125 I-IGF-1) or ^125 I-epidermal growth factor (^125 I-EGF) and varying concentration of unlabeled growth factor or dextran sulfate in 1 ml of binding assay buffer. After incubation at 4° C. for 10 to 12 hours, the assay buffer was removed and the cultures washed three times. The cells and receptor-bound growth factors were then solubilized in 1 ml of […] before being quantitated in a gamma radiation counter.

[4] = tested on: human urinary bladder carcinoma cells; conditions: Sorimachi et al. 1992; cited from earlier work

| Molecule | in-vivo action on MNU induced bladder tumors [1] | T24 cell proliferation inhibition (T24 cells) | prevention of development of transitional cell carcinoma of the bladder ([2]; intravesical, 10 mg/200 g body weight twice a week for four weeks, from week four) | side effects or histopathologic changes in urinary bladders ([2]; rat, in vivo) | EGF binding ([3]; dextran sulfate 10 mM) | EGF binding ([3]; dextran sulfate 1-2 mM) | inhibitory effect on growth of human urinary bladder carcinoma cells in culture [4] |
| --- | --- | --- | --- | --- | --- | --- | --- |
| Cc1ccc(C(=O)Nc2ccc(S(=O)(=O)O)c3cc(S(=O)(=O)O)cc(S(=O)(=O)O)c23)cc1NC(=O)c1cccc(NC(=O)Nc2cccc(C(=O)Nc3cc(C(=O)Nc4ccc(S(=O)(=O)O)c5cc(S(=O)(=O)O)cc(S(=O)(=O)O)c45)ccc3C)c2)c1 [Suramin] | intravesical inhibition of MNU induced bladder tumors | – | – | – | – | – | – |
| dextran sulfate | – | completely inhibited | effectively prevents the development of transitional cell carcinoma of the bladder | did not cause any significant side effects or histopathologic changes | 115 % of control | 80 % of control binding | failed to observe an inhibitory effect |
